Legend:
[1] = Franz cell porcine skin permeation and deposition of cholecalciferol and cholecalciferol phosphate disodium from PG solutions; assay type: in vitro ADME
Description: In order to assess the effect of adding phosphate to vitamin D chemical structure on the penetration of vitamin D through the skin porcine skin permeation studies were performed. Using the data from the pre-formulation studies solutions of cholecalciferol and cholecalciferol phosphate disodium, were prepared. […] The developed HPLC methods were used for quantification.
To study if the addition of the phosphate to cholecalciferol facilitated enhanced transdermal permeation, donor solutions were prepared by adding 2.5 mg/mL of cholecalciferol or cholecalciferol phosphate disodium in 100% PG. […] After 24 h, the receiver fluid was collected and analysed by HPLC methods. […]
Following homogenising solution with epidermis and dermis for 1 min by Ultra Turrax, solutions were filtered through 0.2 μm syringe filters of each bottle was collected and analysed by the HPLC method. The amount of cholecalciferol and cholecalciferol phosphate disodium on the surface of the skin, deposited in the SC, epidermis, dermis, and passed into the receiver fluid was determined. The percentage of mass recovery per cm^2 of skin was calculated, and the drug deposition profile could be obtained.

[2] = Release of cholecalciferol phosphate disodium solutions through synthetic membrane; assay type: in vitro ADME
Description: Preliminary studies were conducted to determine the best synthetic membrane for the patch release using the Franz diffusion cells. Regenerated cellulose (12-14 k molecular weight cut-off Medicell International UK) was compared to nylon (0.20 μm, Whatman, UK) using a range of donor and receiver solutions. The regenerated cellulose membrane was heated to 60° C. for 30 minutes after which the double layer of polymer (it is supplied as a dialysis membrane) was separated and mounted onto the Franz cell (FIG. 3) by sealing between the two compartments using parafilm, and 12 mm magnetic stirrers were placed into the receiver compartment. The receiver compartment was filled with either 50:50 PG:mobile phase (90:10 methanol:water pH 3.2), or 80:20 PG:distilled water, or 75 mM pH 7 saline. The cell sealing was confirmed by cell inversion and monitoring solvent back diffusion. […] The temperature of the Franz diffusion was maintained at 37° C. in a water bath, to set up the membrane temperature to 32° C. […] The 1 ml receiver fluid samples were collected and analysed by HPLC methods at different time intervals. […]

[3] = Cholecalciferol phosphate disodium patch release; assay type: in vitro ADME; details: control solution in PG, 24 h
Description: The patch was produced by mixing 82.9 μL of the adhesive, 1.92 μL of PG and the 4 mg of cholecalciferol phosphate disodium (Table 39). The patch formulation was cast into an in-house rectangular tray measuring 10 by 10 cm. The mixture was left to cure for 3-4 h. The laminate was then added to the adhesive and circles of 34 mm diameter were cut using a dye cutting machine and the release of the cholecalciferol was assessed using the Franz diffusion cells fitted with a nylon membrane over 24 h. A nylon membrane (0.20 μm) was glued to the receiver chamber and no donor chamber was employed to allow the patch to be placed directly on the surface of the nylon membrane. A cholecalciferol phosphate disodium saturated PG solution was used as a comparator with the standard Franz cell set-up previously described. The receiver fluid was 80% PG 20% water for both release testing from the solution and the patch.

[4] = Solubility of cholecalciferol and cholecalciferol phosphate (disodium, acid); assay type: physicochemical
Description: Aliquots of cholecalciferol, cholecalciferol phosphate disodium, and cholecalciferol phosphate acid were added to a range of solvents including propylene glycol (PG), distilled water, methanol, ethyl acetate, ethanol, n-hexane, and the visual solubility was determined. A precise assessment of the saturation solubility was for some of the solvent systems was made using high-performance liquid chromatography (HPLC). In the HPLC solubility studies, an excess of each solute was added into 2 mL of each test solvent. The solutions were left stirring overnight at room temperature, (RT), 22° C. The saturation of the solutions was confirmed by the visual appearance of crystals and the drug suspensions were filtered through 0.2 μm cellulose acetate syringe filters, diluted with excess of mobile phase, and the solute concentration of each sample was assessed using HPLC.

## cholecalciferol phosphate disodium
[1]; p<0.05, ANOVA
  deposition compared with cholecalciferol in each skin layer: significantly higher
[1]; propylene glycol solution
  vitamin D delivered into the skin compared to cholecalciferol: 5 times
[2]; PG donor, 50:50 PG:MP (90:10 methanol:water pH 3.2) receiver
  release through regenerated cellulose membrane: 22.0±4.6%
[2]; saline donor, saline receiver
  release through regenerated cellulose membrane: 3.0±0.7%
[3]
  active release from PG solution, percent of applied active: 17%
[3]; nylon membrane
  active release from PG solution: 512±17 μg/cm^2
[4]; solvent PG
  Solubility: 2670 ± 310 µg/mL
[4]; solvent PG + 5% ethanol
  Solubility: 340 ± 610 µg/mL

Reference: patent US20260306421A1, “SYSTEMS AND METHODS FOR TRANSDERMAN PATCH DELIVERY” (VITAMAX PATCH WHOLESALER LLC, priority 2022, published 2026)
